First: C=CCNc1nc(N)nc2c1ncn2C1CC(F)C(CO)O1 (stereo not given)
Second: O=C1C[C@@H](Nc2ncnc3c2ncn3[C@@H]2O[C@H](CO)[C@@H](O)[C@H]2O)C(=O)N1
The melting point of the first is lower: 128 to 129 °C for the first, 167 to 169 °C for the second.

First: COc1cc(N)c2c(c1)C(=O)CCN2
Second: Cc1ccc(C2=NNC(=O)CC2)c(O)c1
The melting point of the first is lower: 107 to 110 °C for the first, 210 to 211 °C for the second.

Compared with `CC1(C)CCC(C)(C)c2cc(C(=O)c3cccc(I)c3)ccc21`, `COc1cc(C=CC(=O)c2cccc(O)c2)cc(OC)c1` is lower in melting point: 130 to 131 °C for the first, 126 to 127 °C for the second.

Compared with `Cn1cc(-c2cc3cccnc3[nH]2)c2cc(C(=O)NC(CO)CO)ccc21`, `COc1cc(C)c(C(=O)c2ccc(OCc3nc(-c4ccccc4)oc3C)cc2)c(O[C@H](C)C(=O)O)c1` is lower in melting point: 178 to 179 °C for the first, 122 to 123 °C for the second.

First: OCc1ccccc1NCc1cc2c(cc1O)CCO2
Second: O=C(CCSC(=S)Nc1ccc(Cl)cn1)c1ccccc1
The melting point of the first is lower: 149 to 150 °C for the first, 159 °C for the second.

Compared with `O=C(NCCCCCCCCCCCO[N+](=O)[O-])c1ccc(N2CCNCC2)nc1`, `COCCN(CCOC)C(=O)c1ccc([N+](=O)[O-])cc1[N+](=O)[O-]` is higher in melting point: 78 to 80 °C for the first, 89 °C for the second.

Compared with `Oc1cc(OCCCCCCCCCCOc2ccc(C(=S)c3ccc(-c4ccccc4)cc3)c(O)c2)ccc1C(=S)c1ccc(-c2ccccc2)cc1`, `COCOc1ccc(C=CC(=O)c2ccc(OCc3ccccc3)cc2O)c(OCc2ccccc2)c1` is higher in melting point: 125 to 127 °C for the first, 147 to 148 °C for the second.

First: CC1(C)C=C(CN2C/C(=C\c3ccc(F)cc3)C(=O)/C(=C/c3ccc(F)cc3)C2)C(C)(C)N1O
Second: CCC1c2cccn2-c2ccc(F)cc2N1S(=O)(=O)c1ccc(O)c(C)c1 (stereo not given)
The melting point of the first is lower: 142 to 144 °C for the first, 175 to 177 °C for the second.

First: Nc1cc(Cl)nc(SC/C=C/C(=O)N2CCCC2)n1
Second: COC(=O)c1c(Cl)cc(Cl)cc1NC(=O)CSc1ccc(N)cc1
The melting point of the first is higher: 178 to 180 °C for the first, 114 to 116 °C for the second.

First: CN1CC(=O)Nc2ccc(C#N)cc2C1=O
Second: CS(=O)(=O)c1ccc2[nH]c(=O)c(C#N)cc2c1
The melting point of the first is lower: 256 to 258 °C for the first, greater than 310 °C for the second.

First: CON=CNC(=O)c1ccc(C2=NOC(c3cc(Cl)cc(Cl)c3)(C(F)(F)F)C2)cc1C (stereo not given)
Second: CCCc1sc2nc(CCl)c(C(=O)OCC)c(-c3ccc(Cl)cc3)c2c1C
The melting point of the first is higher: 167 to 169 °C for the first, 95 to 96 °C for the second.

First: CCS(=O)(=O)CCN1CCCCC1
Second: Cc1c2n(c(=O)n(Cc3ccccc3)c1=O)CCCS2
The melting point of the first is lower: 45 to 47 °C for the first, 141 to 142 °C for the second.

Compared with `CC(C)(C#N)c1ccc2nc(O)nnc2c1`, `CC(C)(C)c1cc(C2=NC(=S)N=N2)cc(C(C)(C)C)c1O` is higher in melting point: 183 to 185 °C for the first, greater than 250 °C for the second.

Compared with `O=C1CCC(=NNc2ccc(F)cc2)c2ncccc2N1`, `CC(C)c1cc(-c2ccc(F)c3ccc(F)cc23)nc(N)n1` is lower in melting point: 232 to 233 °C for the first, 103 to 105 °C for the second.

First: N#CC(CC(=O)CCl)(c1ccccc1)c1ccccc1
Second: Cc1ccccc1-n1c(C)nc2c(c1=O)N(Cc1ccccc1)NN2
The melting point of the first is lower: 102 to 104 °C for the first, 178 to 180 °C for the second.

First: O=c1c2c([nH]c3ccccc13)C(C1Cc3ccccc3O1)N(c1ncc(-c3ccccn3)cn1)C2 (stereo not given)
Second: CN1c2ccccc2C(c2ccccc2Cl)=Nc2cccnc21
The melting point of the first is higher: 201 to 203 °C for the first, 132 to 133 °C for the second.

Compared with `CCCCC(CC)CN1C(=O)C(=Cc2cc3sc(-c4ccc(N(c5ccccc5)c5ccccc5)cc4)cc3s2)C(C)=C(C#N)C1=O` (stereo not given), `Cc1oc(-c2ccccc2)nc1COc1cccc(CSc2cccc(CC(=O)O)c2)c1` is lower in melting point: 208 to 213 °C for the first, 81 to 82 °C for the second.

Compared with `CC1CC(=O)Nc2ncc3c(c21)CCCN3` (stereo not given), `Fc1cc(F)c2c(c1)CCC(n1cc[nH]c1=S)C2` (stereo not given) is lower in melting point: 309 to 311 °C for the first, 260 to 261 °C for the second.

Compared with `CCSC1(SCC)C(O)CC2C3CCC4=CC(=O)C=CC4(C)C3(F)C(OC(C)=O)CC21C` (stereo not given), `COc1cc2c(cc1Nc1ncc(Cl)c(Nc3ccccc3S(=O)(=O)C(C)C)n1)CCN(CC(=O)N1CCN(C)CC1)CC2` is lower in melting point: 181 to 182 °C for the first, 170 °C for the second.

First: O=C(O)c1cc(=O)c2ccc(COc3ccc(OCc4ccc5ccccc5n4)cc3)cc2o1
Second: CCCCc1nc(Cl)c(C(=O)O)n1Cc1ccc2oc(-c3ccccc3-c3nnn[nH]3)c(Br)c2c1
The melting point of the first is higher: 216 to 219 °C for the first, 183 to 185 °C for the second.

First: Clc1ccc2c(C3=CCNCC3)c[nH]c2c1
Second: CNC(=S)NCc1cc(-c2ccc(Cl)cc2)no1
The melting point of the first is higher: 181 to 185 °C for the first, 135 °C for the second.

Compared with `CC(C)(Cl)CC(=O)c1cc(C(C)(C)C)c(O)c(C(C)(C)C)c1`, `CC(=NO)C(C)(C)NCCN(C)NC(C)(C)C(C)=NO` is higher in melting point: 101 to 102 °C for the first, 130 to 131 °C for the second.

Compared with `COc1cc(O)ccc1CCCc1ccc(O)cc1`, `O=C(Cc1ccc(Cl)cc1)OCCCOc1c(Cl)cc(OCC=C(Cl)Cl)cc1Cl` is lower in melting point: 88 to 89 °C for the first, 62.2 °C for the second.

First: Cc1ccc(Cc2cnc(NCCCCNc3ncc(Cl)cc3C)[nH]c2=O)cn1
Second: Cc1ccc(C2c3c(C)c(N4CCN(c5ccc(C)cc5)CC4)c(C)c(C)c3OC2(C)C)cc1 (stereo not given)
The melting point of the first is higher: 202 to 203 °C for the first, 157 to 158 °C for the second.

Compared with `Brc1cccc2c1SSSSS2`, `O=Cc1cc(I)ccc1O` is higher in melting point: 93 to 98 °C for the first, 99 to 101 °C for the second.

Reference: a melting point compilation (Tetko et al.; mined from patent text by program, amines drawn as free bases though some values may be those of a salt)
